Results taken from patent publication US4015974A, “Amido phosphorothiolates” (priority 1972, dated 1977).

Tests used:
Type in all cases: in vivo
[1] = test system: common purslane (Portulaca oleracea); assay: Pre-emergence application, herbicidal effect on common purslane (Table 1); set-up: key: 0: not damaged; 5: completely killed; conditions: 20 days after application, score 0-5
Summary of the method: (§1)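 Pre-emergence soil application of wettable powders diluted in water over covered seeds (~10 cm pots). Greenhouse growth; visual 0–5 rating (0 none, 5 dead) at 20 days.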

[2] = test system: radish; assay: Pre-emergence application, herbicidal effect on radish (Table 1); set-up: key: 0: not damaged; 5: completely killed; conditions: 20 days after application, score 0-5
Summary of the method: as §1

[3] = test system: broad-leaved weeds, e.g., monochoria, false pimpernel and toothcup; assay: Water application, herbicidal effect on broad-leaved weeds (Table 2); set-up: key: 0: not damaged; 5: completely killed; conditions: 25 days, score 0-5
Summary of the method: (§2)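 Under water-lodged conditions, wettable-powder test compounds are applied to paddy soil carrying transplanted rice (3-leaf) and sown barnyard grass. Activity on these and on spontaneously emerged broad-leaved weeds is graded 0 to 5 twenty-five days later.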

[4] = test system: common lambsquarter (Chenopodium album); assay: Pre-emergence application, herbicidal effect on common lambsquarter (Table 1); set-up: key: 0: not damaged; 5: completely killed; conditions: 20 days after application, score 0-5
Summary of the method: as §1

[5] = test system: large crabgrass (Digitaria sanguinalis); assay: Pre-emergence application, herbicidal effect on large crabgrass (Table 1); set-up: key: 0: not damaged; 5: completely killed; conditions: 20 days after application, score 0-5
Summary of the method: as §1

[6] = test system: barnyard grass (Echinochloa crus-galli); assay: Water application, herbicidal effect on barnyard grass (Table 2); set-up: key: 0: not damaged; 5: completely killed; conditions: 25 days, score 0-5
Summary of the method: as §2

[7] = test system: rice; assay: Water application, phytotoxicity on rice (Table 2); set-up: key: 0: no effect; 1: very slightly affected; 2: slightly affected; 3: moderately affected; 4: considerably affected; 5: completely killed; conditions: 25 days, score 0-5
Summary of the method: as §2

[8] = test system: barnyard grass (Echinochloa crus-galli); assay: Pre-emergence application, herbicidal effect on barnyard grass (Table 1); set-up: key: 0: not damaged; 5: completely killed; conditions: 20 days after application, score 0-5
Summary of the method: as §1

[9] = test system: redroot pigweed (Amaranthus retroflexus); assay: Pre-emergence application, herbicidal effect on redroot pigweed (Table 1); set-up: key: 0: not damaged; 5: completely killed; conditions: 20 days after application, score 0-5
Summary of the method: as §1

Compound	Herbicidal effect, common purslane ([1]; 10 g./a.)	Herbicidal effect, common purslane ([1]; 20 g./a.)	Herbicidal effect, common purslane ([1]; 40 g./a.)	Herbicidal effect, radish ([2]; 10 g./a.)	Herbicidal effect, radish ([2]; 20 g./a.)	Herbicidal effect, radish ([2]; 40 g./a.)	Herbicidal effects, broad-leaved weeds ([3]; 10 g/a)	Herbicidal effects, broad-leaved weeds ([3]; 20 g/a)	Herbicidal effects, broad-leaved weeds ([3]; 40 g/a)	Herbicidal effect, common lambsquarter ([4]; 10 g./a.)	Herbicidal effect, common lambsquarter ([4]; 20 g./a.)	Herbicidal effect, common lambsquarter ([4]; 40 g./a.)	Herbicidal effect, large crabgrass ([5]; 10 g./a.)	Herbicidal effect, large crabgrass ([5]; 20 g./a.)	Herbicidal effect, large crabgrass ([5]; 40 g./a.)	Herbicidal effects, barnyard grass ([6]; 10 g/a)	Herbicidal effects, barnyard grass ([6]; 20 g/a)	Herbicidal effects, barnyard grass ([6]; 40 g/a)	Phytotoxicity on rice ([7]; 10 g/a)	Phytotoxicity on rice ([7]; 20 g/a)	further results
CCOP(=O)(SCC(=O)N1CCC(C)CC1)SC(C)C (stereo not drawn) [Compound 26]	4	4	4	0	0	0	5	5	5	3	4	4	4	5	5	5	5	5	0	0	Phytotoxicity on rice ([7]; 40 g/a): 0; Herbicidal effect, barnyard grass ([8]; 10 g./a.): 4; Herbicidal effect, barnyard grass ([8]; 20 g./a.): 5; Herbicidal effect, barnyard grass ([8]; 40 g./a.): 5; Herbicidal effect, redroot pigweed ([9]; 10 g./a.): 4; Herbicidal effect, redroot pigweed ([9]; 20 g./a.): 4; Herbicidal effect, redroot pigweed ([9]; 40 g./a.): 4
CCCOP(=O)(SCC(=O)N1CCCCC1CC)SCC(C)C (stereo not drawn) [Compound 88]	3	3	4	0	0	0	5	5	5	3	3	4	5	5	5	5	5	5	0	0	Phytotoxicity on rice ([7]; 40 g/a): 0; Herbicidal effect, barnyard grass ([8]; 10 g./a.): 5; Herbicidal effect, barnyard grass ([8]; 20 g./a.): 5; Herbicidal effect, barnyard grass ([8]; 40 g./a.): 5; Herbicidal effect, redroot pigweed ([9]; 10 g./a.): 3; Herbicidal effect, redroot pigweed ([9]; 20 g./a.): 3; Herbicidal effect, redroot pigweed ([9]; 40 g./a.): 4
CCCCCSP(=O)(OCC)SCC(=O)N1CCCC(C)C1 (stereo not drawn) [Compound 72]	3	4	5	0	0	0	5	5	5	4	4	5	5	5	5	5	5	5	0	0	Phytotoxicity on rice ([7]; 40 g/a): 0; Herbicidal effect, barnyard grass ([8]; 10 g./a.): 4; Herbicidal effect, barnyard grass ([8]; 20 g./a.): 5; Herbicidal effect, barnyard grass ([8]; 40 g./a.): 5; Herbicidal effect, redroot pigweed ([9]; 10 g./a.): 3; Herbicidal effect, redroot pigweed ([9]; 20 g./a.): 4; Herbicidal effect, redroot pigweed ([9]; 40 g./a.): 5
CCCCOP(=O)(SCC(=O)N1CCCCC1CC)SC(C)C (stereo not drawn) [Compound 94]	3	4	5	0	0	0	5	5	5	4	4	5	5	5	5	5	5	5	0	0	Phytotoxicity on rice ([7]; 40 g/a): 0; Herbicidal effect, barnyard grass ([8]; 10 g./a.): 5; Herbicidal effect, barnyard grass ([8]; 20 g./a.): 5; Herbicidal effect, barnyard grass ([8]; 40 g./a.): 5; Herbicidal effect, redroot pigweed ([9]; 10 g./a.): 3; Herbicidal effect, redroot pigweed ([9]; 20 g./a.): 4; Herbicidal effect, redroot pigweed ([9]; 40 g./a.): 5
CCCOP(=O)(SC)SCC(=O)N1CCCCC1C (stereo not drawn) [Compound 66]	5	5	5	0	0	1	5	5	5	5	5	5	5	5	5	5	5	5	0	0	Phytotoxicity on rice ([7]; 40 g/a): 0; Herbicidal effect, barnyard grass ([8]; 10 g./a.): 5; Herbicidal effect, barnyard grass ([8]; 20 g./a.): 5; Herbicidal effect, barnyard grass ([8]; 40 g./a.): 5; Herbicidal effect, redroot pigweed ([9]; 10 g./a.): 5; Herbicidal effect, redroot pigweed ([9]; 20 g./a.): 5; Herbicidal effect, redroot pigweed ([9]; 40 g./a.): 5
CCCOP(=O)(SCC(=O)N1CCCCC1C)SCC(C)C (stereo not drawn) [Compound 67]	4	4	5	0	0	0	5	5	5	3	4	5	4	5	5	5	5	5	0	0	Phytotoxicity on rice ([7]; 40 g/a): 0; Herbicidal effect, barnyard grass ([8]; 10 g./a.): 4; Herbicidal effect, barnyard grass ([8]; 20 g./a.): 5; Herbicidal effect, barnyard grass ([8]; 40 g./a.): 5; Herbicidal effect, redroot pigweed ([9]; 10 g./a.): 4; Herbicidal effect, redroot pigweed ([9]; 20 g./a.): 4; Herbicidal effect, redroot pigweed ([9]; 40 g./a.): 5
